Data reported in patent US4948894A, “8-fluoro and 7, 8, 10-trifluoro-9-(substituted)-6-oxo-6H-benzo-(C)quinolizine-5-carboxylic acids” (American Cyanamid Company, priority 1989, dated 1990).
Values after ≈ are worked out from the molar mass of the structure shown. Like-named read-outs stand apart in the source and are kept apart here.

How the values were obtained:
Assay in all cases: In vitro antibacterial spectrum, agar plate dilution method (MIC)
Format in all cases: cell-based
[1] = system: Klebsiella nneumoniae; conditions: Mueller-Hinton agar, 10^4 CFU, 18 hours at 35° C
Experimental: (§1) The in vitro antimicrobial spectrum of the compounds of the invention were determined by the agar plate dilution method with Mueller-Hinton agar and an inoculum of each test organism of approximately 10^4 colony forming units delivered by the steers replicating device. The minimal inhibitory concentration (MIC) in mcg/ml is defined as the lowest concentration of test compound that inhibited visible growth after 18 hours incubation at 35° C.

[2] = system: Providencia stuartii; conditions: Providencia stuartii CMC 83-3; Mueller-Hinton agar, 10^4 CFU, 18 hours at 35° C
Experimental: as §1

[3] = system: Pseudomonas aeruginosa; conditions: Mueller-Hinton agar, 10^4 CFU, 18 hours at 35° C
Experimental: as §1

[4] = system: Staphylococcus aureus; conditions: Mueller-Hinton agar, 10^4 CFU, 18 hours at 35° C
Experimental: as §1

[5] = system: Proteus rettgeri; conditions: Providencia rettgeri; Proteus rettgeri IO 83-21; Mueller-Hinton agar, 10^4 CFU, 18 hours at 35° C
Experimental: as §1

[6] = system: Citrobacter diversus; conditions: Citrobacter koseri; Citrobacter diversus K 82-24; Mueller-Hinton agar, 10^4 CFU, 18 hours at 35° C
Experimental: as §1

[7] = system: Streptococcus faecalis; conditions: Mueller-Hinton agar, 10^4 CFU, 18 hours at 35° C
Experimental: as §1

[8] = system: Morganella morganii; conditions: 18 h, 10^4 CFU, 18 hours at 35° C
Experimental: as §1

[9] = system: Serratia marcescens; conditions: 18 h, 10^4 CFU, 18 hours at 35° C
Experimental: as §1

[10] = system: Escherichia coli; conditions: 10^4 CFU, 18 hours at 35° C
Experimental: as §1

[11] = system: Enterobacter cloacae; conditions: 18 h, 10^4 CFU, 18 hours at 35° C
Experimental: as §1

## CN1CCN(c2cc3c(cc2F)c(=O)c(C(=O)O)c2ccccn23)CC1 [Example 6, 8-Fluoro-9-(4-methyl-1-piperazinyl)-6-oxo-6H-benzo[c]quinolizine-5-carboxylic acid]
[1]; Klebsiella nneumoniae IO 83-5
  MIC: 8 µg/mL (≈ 22.5 µM)
[1]; Klebsiella nneumoniae MOR 84-24, read-out: MIC
  MIC: 8 µg/mL (≈ 22.5 µM)
[1]; Klebsiella oneumoniae CMC 84-31
  MIC: 8 µg/mL (≈ 22.5 µM)
[2]
  MIC: > 16 µg/mL
[3]; Pseudomonas aeruginosa CMC 83-20
  MIC: > 16 µg/mL
[3]; Pseudomonas aeruginosa K 84-16, read-out: MIC
  MIC: > 16 µg/mL
[3]; Pseudomonas aeruginosa VGH 84-3
  MIC: > 16 µg/mL
[4]; ATCC25913, Staphylococcus aureus ATCC 25913, read-out: MIC
  MIC: > 16 µg/mL
[4]; Staphylococcus aureus CMC 83-131
  MIC: > 16 µg/mL
[4]; Staphylococcus aureus K 82-26
  MIC: > 16 µg/mL
[4]; Staphylococcus aureus VGH 84-47, read-out: MIC
  MIC: > 16 µg/mL
[5]
  MIC: 1 µg/mL (≈ 2.81 µM)
[6]
  MIC: 4 µg/mL (≈ 11.3 µM)
[7]; Enterococcus faecalis, Streptococcus faecalis VCI 85-30, read-out: MIC
  MIC: > 16 µg/mL
[7]; Streptococcus faecalis CMC 83-120
  MIC: > 16 µg/mL
[7]; Streptococcus faecalis VGH 84-69
  MIC: > 16 µg/mL
[8]; Morganella morganii CMC 84-38, Mueller-Hinton agar
  MIC: 0.5 µg/mL (≈ 1.41 µM)
[8]; Morganella morganii VGH 84-12, Mueller-Hinton agar
  MIC: 4 µg/mL (≈ 11.3 µM)
[8]; Moroanella morganii MOR 84-45, Mueller-Hinton agar
  MIC: 0.5 µg/mL (≈ 1.41 µM)
[9]; Serratia marcescens CMC 83-74, Mueller-Hinton agar
  MIC: > 16 µg/mL
[9]; Serratia marcescens IO 83-63, Mueller-Hinton agar
  MIC: 4 µg/mL (≈ 11.3 µM)
[9]; Serratia marcescens MOR 84-41, Mueller-Hinton agar
  MIC: 2 µg/mL (≈ 5.63 µM)
[10]; 18 h, Escherichia coli CMC 84-50, Mueller-Hinton agar
  MIC: 2 µg/mL (≈ 5.63 µM)
[10]; 18 h, Escherichia coli D 21, Mueller-Hinton agar
  MIC: 4 µg/mL (≈ 11.3 µM)
[10]; 18 h, Escherichia coli D 22, Mueller-Hinton agar
  MIC: 2 µg/mL (≈ 5.63 µM)
[10]; 18 h, Escherichia coli MOR 84-20, Mueller-Hinton agar
  MIC: 2 µg/mL (≈ 5.63 µM)
[10]; 18 h, Escherichia coli VGH 84-19, Mueller-Hinton agar
  MIC: 4 µg/mL (≈ 11.3 µM)
[10]; ATCC25922, 18 h, Escherichia coli ATCC 25922, Mueller-Hinton agar
  MIC: 4 µg/mL (≈ 11.3 µM)
[11]; Enterobacter cloacae K 84-10, Mueller-Hinton agar
  MIC: 2 µg/mL (≈ 5.63 µM)
[11]; Enterobacter cloacae MOR 84-30, Mueller-Hinton agar
  MIC: 16 µg/mL (≈ 45 µM)
[11]; Enterobacter cloacae VGH 84-39, Mueller-Hinton agar
  MIC: 2 µg/mL (≈ 5.63 µM)
